{
  "source": "paper PMC9862026",
  "about": "“In Vivo Toxicity, Redox-Modulating Capacity and Intestinal Permeability of Novel Aroylhydrazone Derivatives as Anti-Tuberculosis Agents” (Pharmaceutics, 2022)",
  "key": {"[1]": {"system": "GSH in the liver homogenate", "assay": "Total glutathione in liver homogenate", "format": "in vivo, mice", "settings": "50 mg/kg oral, 14 days", "procedure": "(§1) Serum biochemical parameters were assessed as follows.\nAccording to Rahman et al. total glutathione (tGSH) concentration was determined. In the reaction between GSH and 5,5′-dithiobis-2-nitrobenzoic acid (DTNB), the rate of formation of colored substance, 5′-thio-2-nitrobenzoic acid (TNB), is proportional to the concentration of tGSH in the sample. The maximal absorption of colored TNB is at 412 nm. The concentration of tGSH was calculated using oxidized glutathione as a reference standard and was expressed as ng/mg protein."}, "[2]": {"system": "MDA in the liver homogenate", "assay": "Endogenous MDA (spontaneous lipid peroxidation) in liver homogenate", "settings": "50 mg/kg oral, 14 days; vs controls", "method": "On day 14, the animals were anesthetized with ketamine/ xylazine and decapitated. […] Livers were taken to assess oxidative stress and antioxidant status in the study groups.\nFor the in vivo experiments (spontaneous lipid peroxidation) the postnuclear homogenates of the liver (mg protein/mL) in 0.15 M KCl—10 mM potassium phosphate buffer, pH 7.2, were heated for 15 min at 100 °C in the presence of 40% TCA + 5N HCl + 2% thiobarbituric acid (2:1:2 v/v) for color developing. After cooling and centrifugation, the absorbance was read at 532 nm against dd H2O as blank. The values were expressed in nmoles malondialdehyde (MDA) per mg protein, with a molar extinction coefficient of 1.56 × 10^−5 M^−1cm^−1."}, "male Jcl:ICR mice [3]": {"system": "male Jcl:ICR mice", "assay": "Sub-acute toxicity, 14 days oral: serum biochemical parameters", "format": "in vivo", "settings": "50 mg/kg oral", "procedure": "(§2) The sub-acute toxicity effects were assessed after repeated (14 days) oral administration to male mice. […] The experiments were performed with male Jcl: ICR mice at the same age of 6 weeks and weighing approximately 30–35 g, in which the substances were administered daily for 14 days orally with a gastric tube at approximately the same time of the day. The compounds were solubilized with Tween 80 (0.1%) in distilled water and administered orally in a volume of 0.1 mL per 10.0 g. Animals were observed daily for behavioral changes and signs of toxicity. All results were compared with the positive control isoniazid (INH).\nas §1"}, "small intestine of mice": {"system": "small intestine of mice", "assay": "Pathomorphological evaluation of small intestine", "format": "in vivo", "settings": "50 mg/kg oral, 14 days", "procedure": "(§3) Tissues from the liver, kidney and small intestine of the mice from all groups were collected post-mortem and fixed in 10% buffered formalin for 48 h. fixed tissues were processed according to the classical paraffin method. The cutting of the paraffin blocks was performed using a paraffin rotary microtome Leica RM 2255 at a slice thickness of 5 µm. The sections were stained with hematoxylin and eosin (H&E). Histological changes were examined and imaged with a Leica DM2500 light microscope equipped with a Leica MC120HD digital camera and also with Euromex BioBlue (Belgium) digital camera"}, "[4]": {"system": "SOD in the liver supernatant", "assay": "SOD activity in liver supernatant", "format": "in vivo, mice", "settings": "50 mg/kg oral, 14 days", "procedure": "as §1\nSOD activity was measured by the method of Beauchamp and Fridovich. Superoxide anion radicals generated photochemically for 7 min, reduced nitro blue tetrazolium (NBT) obtaining insoluble formazan in violet color. The reduction of NBT inhibition in the presence of different enzyme concentrations was read at 560 nm vs. control of reaction mixture. The amount of enzyme performing 50% inhibition of NBT reduction is accepted as a unit of activity (U/mg protein)."}, "liver of mice": {"system": "liver of mice", "assay": "Pathomorphological evaluation of liver", "format": "in vivo", "settings": "50 mg/kg oral, 14 days", "procedure": "as §3"}, "kidney of mice": {"system": "kidney of mice", "assay": "Pathomorphological evaluation of kidney", "format": "in vivo", "settings": "50 mg/kg oral, 14 days", "procedure": "as §3"}, "[5]": {"assay": "GIT PAMPA intestinal permeability (Double-Sink protocol)", "format": "in vitro ADME", "procedure": "The intestinal permeability of isoniazid and the newly synthesized derivatives was measured by PAMPA Permeability Analyzer (pION Inc., Billerica, MA, USA) following the Double-Sink™ Protocol. PAMPA assay kits were purchased from pION Inc. According to the protocol, the donor compartment of the “sandwich” is loaded with compound solutions adjusted to three different pH values of 5.0, 6.2, and 7.4. The acceptor wells are filled with an ASB of fixed pH 7.4, containing chemical scavengers that simulate the effect of serum proteins. In the central circulation, pH 7.4 is constantly maintained, and the blood flow, as well as the serum proteins, support the one-directional process of absorption. Reference spectra (ketoprofen, antipyrine, and ranitidine) were used to assess the transfer of compounds from the donor to the acceptor phase. The permeation ability was estimated based on permeability coefficient values Pe (10^−6 cm/s), presented in logarithmic terms (−logPe). Values of −logPe < 5 were accepted as indicative of highly permeable compounds. When −logPe acquired values between 5 and 6, compounds were considered as medium permeable, and if −logPe > 6–as low permeable. Experiments were performed in triplicate and permeation coefficients Pe (−logPe values, respectively) are calculated using PAMPA Explorer Command Software (Version 3.8)."}, "[6]": {"system": "Glutathione peroxidase in the liver supernatant", "assay": "Glutathione peroxidase activity in liver supernatant", "format": "in vivo, mice", "settings": "50 mg/kg oral, 14 days", "procedure": "as §1\nThe Glutathione Peroxidase Cellular Activity Assay Kit (Cat. No. CGP1) and Glutathione Reductase Assay Kit (Cat. No. GRSA) were used to measure the activities of glutathione-related enzymes."}, "male Jcl:ICR mice [7]": {"system": "male Jcl:ICR mice", "assay": "Sub-acute toxicity, 14 days oral: complete blood count", "format": "in vivo", "settings": "50 mg/kg oral", "procedure": "as §2, §1"}, "ABTS•+ assay": {"assay": "ABTS•+ assay", "settings": "15 min at 37 °C", "procedure": "ABTS (2,2′-azino-bis (3-ethylbenzthiazoline-6-sulphonic acid) (7.0 mM) was mixed with potassium persulfate (2.45 mM) to obtain the cationic radical (ABTS•+) The solution was diluted in methanol (2 mL ABTS•+ + 58 mL methanol). The absorption at 743 nm of the resulting working solution was 1.1 ± 0.02 AU. Then, 1.425 mL of ABTS•+ working solution was added to 75 μL of the test drugs, and the absorption at 743 nm was measured after 15 min of incubation at 37 °C against methanol. A blank containing 75 μL of water instead of the test extract also was measured against methanol.\n(§4) All data are presented as IC50, which gave 50% inhibition of the activities and compared against the activity of Trolox—a common antioxidant, at the same concentrations."}, "[8]": {"system": "Fe^2+-asc.—induced lipid peroxidation in brain homogenate", "assay": "Fe-induced lipid peroxidation inhibition assay in vitro (TBARS)", "format": "biochemical", "settings": "model system of brain homogenate, 10 mM FeCl3 and 10 mM ascorbic acid", "procedure": "Malondialdehyde as a marker of lipid peroxidation was determined by the formation of endogenous lipid peroxidation products, reacting with 2-thiobarbituric acid (TBARS), and detected spectrophotometrically (λmax = 532 nm) adapted by Mileva et al.. The method is based on the reaction of thiobarbituric acid (TBA) with the final products of lipids oxidation and formation of malondialdehyde (MDA). […] After that to the samples was added 0.6 mL a mixture of trichloroacetic acid (TCA)—TCA:HCl:TBA in 2:1:2 ratio and boiled in a water bath. After cooling and centrifugation at 3000 nrp the obtained color complex was read spectrophotometrically at A532 nm against the appropriate blank. The results were expressed in percentage inhibition of lipid peroxidation (received MDA per mg protein content from the control).\nas §4"}, "DPPH assay": {"assay": "DPPH assay", "settings": "0.1 mM DPPH in methanol, 30 min", "procedure": "DPPH (2,2′-diphenyl-1-picrylhydrazyl radical) assay analysis of pure compounds was conducted by the method described by Brand-Williams et al.. First, 500 μL of the test solutions were added to 500 μL of a freshly prepared solution of 0.1 mM DPPH in methanol and incubated in the dark for 30 min. Then the absorbance at 517 nm (A517) was measured against a mixture of DPPH solution and methanol (1:1) as a control.\nas §4"}},
  "data": [
    {"smiles": "NNC(=O)c1ccncc1", "note": "[INH, isoniazid, reference compound]", "values": [
      {"measurement": "level of total GSH in liver homogenate", "setting": "[1]", "result": "decreased the level of total GSH"},
      {"measurement": "glutathione deficiency", "setting": "[1]; vs control levels", "result": "about 30%"},
      {"measurement": "increase of the level of MDA in liver homogenate", "setting": "[2]", "result": "more than 35%"},
      {"measurement": "decrease of albumin compared to controls", "setting": "male Jcl:ICR mice [3]", "result": 23, "unit": "%"},
      {"measurement": "decrease of total protein compared to controls", "setting": "male Jcl:ICR mice [3]", "result": 26, "unit": "%"},
      {"measurement": "direct bilirubin higher than controls", "setting": "male Jcl:ICR mice [3]", "result": 48, "unit": "%"},
      {"measurement": "increase of ALAT compared to control animals", "setting": "male Jcl:ICR mice [3]", "result": 67, "unit": "%"},
      {"measurement": "increase of ASAT compared to control animals", "setting": "male Jcl:ICR mice [3]", "result": 52, "unit": "%"},
      {"measurement": "increase of creatinine compared to controls", "setting": "male Jcl:ICR mice [3]", "result": 29, "unit": "%"},
      {"measurement": "increase of urea compared to controls", "setting": "male Jcl:ICR mice [3]", "result": 49, "unit": "%"},
      {"measurement": "total bilirubin higher than controls", "setting": "male Jcl:ICR mice [3]", "result": 40, "unit": "%"},
      {"measurement": "ALAT", "setting": "male Jcl:ICR mice [3]; serum", "result": "96.6 ± 3.1", "unit": "U/L"},
      {"measurement": "ALB", "setting": "male Jcl:ICR mice [3]; serum", "result": "21.6 ± 1.7", "unit": "g/L"},
      {"measurement": "ASAT", "setting": "male Jcl:ICR mice [3]; serum", "result": "126 ± 5.2", "unit": "U/L"},
      {"measurement": "CREAT", "setting": "male Jcl:ICR mice [3]; serum", "result": "126.6 ± 8.2", "unit": "µmol/L"},
      {"measurement": "D-Bil", "setting": "male Jcl:ICR mice [3]; serum", "result": "6.5 ± 0.44", "unit": "µmol/L"},
      {"measurement": "GLU", "setting": "male Jcl:ICR mice [3]; serum", "result": "6.4 ± 0.47", "unit": "mmol/L"},
      {"measurement": "T-Bil", "setting": "male Jcl:ICR mice [3]; serum", "result": "12.0 ± 0.38", "unit": "µmol/L"},
      {"measurement": "TP", "setting": "male Jcl:ICR mice [3]; serum", "result": "43.2 ± 3.1", "unit": "g/L"},
      {"measurement": "UA", "setting": "male Jcl:ICR mice [3]; serum", "result": "196 ± 20.7", "unit": "µmol/L"},
      {"measurement": "UREA", "setting": "male Jcl:ICR mice [3]; serum", "result": "13.6 ± 0.36", "unit": "mmol/L"},
      {"measurement": "Pathomorphological findings in the small intestine", "setting": "small intestine of mice", "result": "there were no defects in the epithelium, reaching and exceeding the muscular layer of the epithelium"},
      {"measurement": "villous dullness score", "setting": "small intestine of mice", "result": 1},
      {"measurement": "increase of the activity of SOD in liver", "setting": "[4]", "result": 25, "unit": "%"},
      {"measurement": "Lobular inflammatory process and hepatocyte loss", "setting": "liver of mice", "result": "not reported"},
      {"measurement": "signs related to initiated fibroblastic process (organ collagenization and fibrosis)", "setting": "liver of mice", "result": "No signs"},
      {"measurement": "Pathomorphological findings in the kidney", "setting": "kidney of mice", "result": "the curved parts of the distal tubules have a lower upholstered epithelium, wide luminal segments, and preserved histological structure"},
      {"measurement": "−logPe, GIT PAMPA", "setting": "[5]; at the given experimental conditions (all tested pH), impermeable", "result": "> 6"},
      {"measurement": "−logPe, GIT PAMPA", "setting": "[5]; donor pH = 5.0, acceptor pH 7.4, Pe in 10^−6 cm/s", "result": 6.226},
      {"measurement": "−logPe, GIT PAMPA", "setting": "[5]; donor pH = 6.2, acceptor pH 7.4, Pe in 10^−6 cm/s", "result": 6.591},
      {"measurement": "−logPe, GIT PAMPA", "setting": "[5]; donor pH = 7.4, acceptor pH 7.4, Pe in 10^−6 cm/s", "result": 6.594},
      {"measurement": "increase of the activity of GPx compared to controls", "setting": "[6]", "result": 35, "unit": "%"},
      {"measurement": "HCT", "setting": "male Jcl:ICR mice [7]", "result": "33.3 ± 2.1", "unit": "%"},
      {"measurement": "Hgb", "setting": "male Jcl:ICR mice [7]", "result": "112 ± 2.2", "unit": "g/L"},
      {"measurement": "PLT", "setting": "male Jcl:ICR mice [7]", "result": "789 ± 183 10^9/L"},
      {"measurement": "RBC", "setting": "male Jcl:ICR mice [7]", "result": "5.35 ± 0.2 × 10^12/L"},
      {"measurement": "WBC", "setting": "male Jcl:ICR mice [7]", "result": "9.9 ± 0.54 × 10^9/L"},
      {"measurement": "increase of leukocytes compared to controls", "setting": "male Jcl:ICR mice [7]", "result": 70, "unit": "%"},
      {"measurement": "reduction in hematocrit compared to the control group", "setting": "male Jcl:ICR mice [7]", "result": 20, "unit": "%"},
      {"measurement": "reduction in the level of erythrocytes compared to the control group", "setting": "male Jcl:ICR mice [7]", "result": 28, "unit": "%"},
      {"measurement": "reduction in the level of hemoglobin compared to the control group", "setting": "male Jcl:ICR mice [7]", "result": 21, "unit": "%"}
    ]},
    {"smiles": "Cc1c(C)c2c(c(C)c1O)CCC(C)(C(=O)O)O2", "note": "(centres unmarked) [Trolox, 6-hydroxy-2,5,7,8-tetramethylchroman-2-carboxylic acid, reference compound]", "values": [
      {"measurement": "ABTS Scavenging, IC50", "setting": "ABTS•+ assay", "result": 24.8, "unit": "mg/mL"},
      {"measurement": "Fe^2+-asc.—Induced LP in Liver, IC50", "setting": "[8]", "result": 18.2, "unit": "mg/mL"},
      {"measurement": "DPPH Scavenging, IC50", "setting": "DPPH assay", "result": 8.92, "unit": "mg/mL"}
    ]}
  ]
}
